Data set [1] can be described thus: Pharmacokinetic study after oral administration to rats. To be noted: rat, in vivo, 10 mg/kg (Compound 1 basis), oral suspension. As to the method:
Studies comparing the pharmacokinetics of crystalline Compound 1 and solid dispersion of amorphous Compound 1 (25%) as prepared in Example 1 were conducted in rats. The dose in both studies were 10 mg/kg (Compound 1 basis). Rats were administered Crystalline Compound 1 as an oral suspension in a vehicle of 20% Captisol/0.4% HPMC at pH 2. Rats were administered amorphous Compound 1 as an oral suspension using in a 0.5% Methocel vehicle.

Data set [2] in a line: Kinetic aqueous solubility at select pH. Type of data set: physicochemical. As to conditions: aqueous medium, kinetic from dmso stock, 25° C. As to the method:
Solubility of a solid dispersion of amorphous Compound 1 (25%)/HPMCAS-HG as prepared in Example 1, at select pH values was evaluated.

Consider one compound from US11576903B2, “Amorphous kinase inhibitor formulations and methods of use thereof” (Deciphera Pharmaceuticals, LLC, priority 2019, dated 2023).

Values after ≈ are worked out from the molar mass of the structure shown.

One may read the AUC(0-inf) as total exposure, with the tail of the curve extrapolated. A higher AUC(0-inf) goes with more exposure. As usually defined, the AUC(0-t) is exposure summed from dosing to a finite time, without extrapolation to infinity. Higher therefore signals high exposure. One may read the Cmax as the peak of the concentration-time curve. What is called Tmax is the time at which the peak concentration occurs. For orientation: half-life means how long it takes for the measured level to halve. What is called kinetic solubility is the concentration staying in solution when a stock, usually in DMSO, is diluted into the medium. For the compound `CCn1c(=O)c(-c2cc(NC(=O)Nc3ccccc3)c(F)cc2Br)cc2cnc(NC)cc21` [Crystalline Compound 1], in data set [1], the area under the curve AUC(0-inf) is 0.131 µg·h/mL, the area under the curve AUC(0-t) stood at 0.111 µg·h/mL, the highest concentration (Cmax) was determined as 0.0202 µg/mL and the Tmax is 1.67 h. The compound further showed a half-life in data set [1] of 8.76 h. Moreover, the solubility (kinetic) in data set [2] (aqueous buffer, pH 6.5, aqueous) stood at 1 µg/mL (≈ 1.96 µM). The kinetic solubility in data set [2] (simulated gastric fluid, pH 2, aqueous) was 6 µg/mL (≈ 11.8 µM).
